Measurements published in ChEMBL document CHEMBL1201862, “PubChem BioAssay data set” (2004).
The source made the active and inactive calls.

Legend:
ORF 73 = target: T1, ORF 73 (Human herpesvirus 8, UniProt O40947); assay: KSHV LANA DNA-binding disruption – biochemical, fluorescence polarization, cherry-picked samples, dose response (AID 504725); design: species or system Human gammaherpesvirus 8;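 also: fluorescence polarization of a labeled DNA duplex reporting LANA DNA binding; potency is for inhibitors that block LANA binding to the DNA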
T1 sequence (O40947 whole entry): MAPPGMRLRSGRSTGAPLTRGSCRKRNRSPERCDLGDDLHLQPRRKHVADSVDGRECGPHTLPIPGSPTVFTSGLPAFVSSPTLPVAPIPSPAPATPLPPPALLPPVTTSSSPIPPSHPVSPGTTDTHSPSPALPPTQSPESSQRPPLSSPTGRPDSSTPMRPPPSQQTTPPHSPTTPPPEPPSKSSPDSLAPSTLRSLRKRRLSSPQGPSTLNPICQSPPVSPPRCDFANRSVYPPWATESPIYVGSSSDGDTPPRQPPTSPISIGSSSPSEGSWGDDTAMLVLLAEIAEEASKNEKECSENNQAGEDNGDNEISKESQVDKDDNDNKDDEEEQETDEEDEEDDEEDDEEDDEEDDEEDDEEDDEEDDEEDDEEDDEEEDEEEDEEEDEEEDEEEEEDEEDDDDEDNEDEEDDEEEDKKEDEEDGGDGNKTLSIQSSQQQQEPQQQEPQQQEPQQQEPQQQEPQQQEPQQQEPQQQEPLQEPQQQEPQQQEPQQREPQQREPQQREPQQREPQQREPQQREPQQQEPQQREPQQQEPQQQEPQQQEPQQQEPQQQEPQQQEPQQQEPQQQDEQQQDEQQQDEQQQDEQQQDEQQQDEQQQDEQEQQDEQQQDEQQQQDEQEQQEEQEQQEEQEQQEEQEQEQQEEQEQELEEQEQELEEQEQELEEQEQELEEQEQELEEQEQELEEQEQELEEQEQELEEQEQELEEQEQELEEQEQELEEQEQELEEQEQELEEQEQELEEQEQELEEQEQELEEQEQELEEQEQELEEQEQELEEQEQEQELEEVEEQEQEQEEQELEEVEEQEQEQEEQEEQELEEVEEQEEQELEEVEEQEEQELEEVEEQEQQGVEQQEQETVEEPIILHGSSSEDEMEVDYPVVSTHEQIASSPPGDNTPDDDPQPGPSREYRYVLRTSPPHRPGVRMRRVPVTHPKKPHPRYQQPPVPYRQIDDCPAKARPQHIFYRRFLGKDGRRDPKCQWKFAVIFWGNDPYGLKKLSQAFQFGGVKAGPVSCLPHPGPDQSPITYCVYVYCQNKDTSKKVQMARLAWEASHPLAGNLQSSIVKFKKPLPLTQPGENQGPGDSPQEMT

Estrogen receptor beta = Estrogen receptor beta (Homo sapiens, UniProt Q92731);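 also: recombinant ER-beta bound to coactivator SRC1 peptide in presence of estradiol agonist; inhibitors block coactivator peptide binding and lower the FRET signal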
[1] = target: T2, Tyrosine-protein phosphatase non-receptor type 22 (Homo sapiens, UniProt Q9Y2R2); assay: SAR LYP1 Fluorescent Assay using pCAP substrate for In Vitro dose response studies - Set 2. [Related pubchem assays (depositor defined):AID1779, AID1784, AID2135, AID449727]; format: functional
T2 sequence (Q9Y2R2 whole entry): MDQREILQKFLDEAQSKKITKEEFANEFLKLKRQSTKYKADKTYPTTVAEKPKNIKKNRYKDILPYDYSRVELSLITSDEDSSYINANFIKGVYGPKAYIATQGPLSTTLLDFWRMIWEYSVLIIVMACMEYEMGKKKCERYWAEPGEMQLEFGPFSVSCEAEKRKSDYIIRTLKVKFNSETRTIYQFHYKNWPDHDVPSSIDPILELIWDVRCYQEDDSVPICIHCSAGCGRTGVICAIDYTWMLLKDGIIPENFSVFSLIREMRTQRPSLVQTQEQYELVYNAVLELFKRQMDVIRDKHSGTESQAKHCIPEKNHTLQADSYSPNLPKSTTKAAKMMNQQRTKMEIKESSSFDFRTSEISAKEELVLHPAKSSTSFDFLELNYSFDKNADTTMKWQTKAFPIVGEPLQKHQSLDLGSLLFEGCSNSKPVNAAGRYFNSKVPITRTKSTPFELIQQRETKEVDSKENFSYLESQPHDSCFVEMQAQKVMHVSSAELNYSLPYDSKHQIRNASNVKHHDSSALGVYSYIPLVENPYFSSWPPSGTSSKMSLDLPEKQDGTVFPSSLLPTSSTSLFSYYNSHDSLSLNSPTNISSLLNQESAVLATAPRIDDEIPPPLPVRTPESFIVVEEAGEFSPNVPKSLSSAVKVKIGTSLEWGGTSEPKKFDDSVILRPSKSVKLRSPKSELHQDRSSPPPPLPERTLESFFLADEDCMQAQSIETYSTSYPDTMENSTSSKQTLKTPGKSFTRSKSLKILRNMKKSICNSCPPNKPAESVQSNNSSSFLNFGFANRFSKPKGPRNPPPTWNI

[2] = target: T3, Tyrosine-protein phosphatase non-receptor type 7 (Homo sapiens, UniProt P35236); assay: inhibition of hematopoietic tyrosine phosphatase HePTP – biochemical, set 2, SAR follow-up (AID 449736); format: functional
T3 sequence (P35236 whole entry): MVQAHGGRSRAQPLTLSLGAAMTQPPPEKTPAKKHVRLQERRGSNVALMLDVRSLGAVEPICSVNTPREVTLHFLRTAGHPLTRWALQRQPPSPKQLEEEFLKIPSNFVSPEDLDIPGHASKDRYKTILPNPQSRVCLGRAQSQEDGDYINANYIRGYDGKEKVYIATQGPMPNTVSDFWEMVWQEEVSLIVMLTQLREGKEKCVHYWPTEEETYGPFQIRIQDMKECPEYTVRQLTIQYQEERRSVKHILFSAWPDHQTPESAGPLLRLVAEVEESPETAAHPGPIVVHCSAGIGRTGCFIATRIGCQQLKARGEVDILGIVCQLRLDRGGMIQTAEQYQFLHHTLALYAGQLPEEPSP

[3] = target: T2, Tyrosine-protein phosphatase non-receptor type 22; assay: SAR LYP1 Fluorescent Assay using OMFP substrate for In Vitro dose response studies - Set 4. [Related pubchem assays (depositor defined):AID1779, AID1784, AID2140, AID2686]; format: functional
[4] = target: T2, Tyrosine-protein phosphatase non-receptor type 22; assay: SAR LYP1 Fluorescent Assay using OMFP substrate for In Vitro dose response studies - Set 2. [Related pubchem assays (depositor defined):AID1779, AID1784, AID2140, AID449726, AID488869]; format: functional
Cysteine protease ATG4B = target: T4, Cysteine protease ATG4B (Homo sapiens, UniProt Q9Y4P1); format: functional;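 also: Fluorescence-based dose-response confirmation assay measuring inhibition of ATG4B activity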
T4 sequence (Q9Y4P1 whole entry): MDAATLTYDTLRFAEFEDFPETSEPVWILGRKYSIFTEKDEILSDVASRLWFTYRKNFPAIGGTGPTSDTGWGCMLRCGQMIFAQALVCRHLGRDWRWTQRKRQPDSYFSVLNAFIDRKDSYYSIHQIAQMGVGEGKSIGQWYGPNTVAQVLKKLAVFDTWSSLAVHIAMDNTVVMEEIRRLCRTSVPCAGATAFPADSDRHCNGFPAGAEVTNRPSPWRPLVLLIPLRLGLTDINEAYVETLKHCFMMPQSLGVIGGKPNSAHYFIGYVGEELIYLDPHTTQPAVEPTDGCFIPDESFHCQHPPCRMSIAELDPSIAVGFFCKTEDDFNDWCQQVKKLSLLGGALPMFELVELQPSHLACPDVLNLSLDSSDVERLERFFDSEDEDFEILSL

Estrogen receptor beta, sequence (Q92731 whole entry): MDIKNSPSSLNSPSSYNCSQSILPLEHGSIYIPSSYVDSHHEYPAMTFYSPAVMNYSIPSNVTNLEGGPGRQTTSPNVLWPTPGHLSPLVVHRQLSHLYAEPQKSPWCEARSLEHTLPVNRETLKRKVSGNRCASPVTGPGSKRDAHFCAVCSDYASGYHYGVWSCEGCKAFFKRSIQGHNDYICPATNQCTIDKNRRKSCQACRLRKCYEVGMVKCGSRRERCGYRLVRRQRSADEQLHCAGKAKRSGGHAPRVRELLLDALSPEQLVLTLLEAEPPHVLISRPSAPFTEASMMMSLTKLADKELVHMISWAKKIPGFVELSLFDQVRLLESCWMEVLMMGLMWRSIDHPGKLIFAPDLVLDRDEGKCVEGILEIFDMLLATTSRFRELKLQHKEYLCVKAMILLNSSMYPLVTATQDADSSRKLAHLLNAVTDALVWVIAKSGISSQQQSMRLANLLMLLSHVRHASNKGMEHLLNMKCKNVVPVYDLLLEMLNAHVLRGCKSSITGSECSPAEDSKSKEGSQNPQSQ

In the case of `Nc1ccc2nc3c(O)nc(S)nc3nc2c1`, the AC50 (ORF 73) is reported as 3620 nM (active).

In the case of `COc1ccc(C(=O)Nc2nc3c(s2)Cc2cc(OC)ccc2-3)cc1`, the IC50 (Estrogen receptor beta) is reported as > 50000 nM (not active).

`O=C(O)COc1ccc(/C=N/NC(=O)c2ccc(-c3csc(Nc4ccc(Cl)cc4)n3)cc2)cc1` was tested, and the IC50 [1] was 249 nM (active), the IC50 [2] was 193 nM (active) and the IC50 [3] was 1470 nM (active). The IC50 [4] was 1240 nM (active).

With `CC(/C=C1\SC(=S)N(NS(=O)(=O)c2ccccc2)C1=O)=C\c1ccccc1` the IC50 (Cysteine protease ATG4B) was 12000 nM (active).
